Results on six compounds are retold here after PMC12196348, “^99mTc-Labeled Diarylpyrazoles for Single-Emission Computer Tomography Imaging of Neurotensin Receptor-Positive Tumors: A Comparative Preclinical Study” (Pharmaceutics, 2025).

Broadly, the Ki is the dissociation constant of the complex between target and ligand, obtained from inhibition or displacement. The term IC50 denotes the concentration that gives 50% inhibition.

Test [1] concerns the target T1, human NTSR2 (Homo sapiens, UniProt O95665).
T1 construct: host or cells: HEK 293T cells, transient transfection
Put plainly: NTSR2 competition binding, membranes of transiently transfected HEK 293T cells, [3H]NT(8-13). The following applies: human NTSR2, HEK 293T membranes, [3H]NT(8-13) 0.50 nM; mean ± SEM. The method, then:
(§1) Radioligand binding experiments with the NTSR1 and NTSR2 receptor subtypes were performed as described previously. […] NTSR2 binding was measured using homogenates of membranes from HEK 293T cells, which were transiently transfected with DNA encoding the human NTSR2 (cDNA Resource Center, Bloomsberg, PA, USA) using the Mirus TransIT-293 transfection reagent (Peqlab, Erlangen, Germany). […] Nonspecific binding was determined in the presence of 10 μM NT(8-13), protein concentration was determined by the method of Lowry using bovine serum albumin as a standard. A data analysis of the radioligand displacement curves was accomplished by non-linear regression analysis using the algorithms in PRISM 9.0 (GraphPad Software, San Diego, CA, USA). EC50 values derived from the resulting dose response curves were transformed into the corresponding Ki values applying the equation of Cheng and Prusoff.

The target of test [2] is human NTSR1 (Homo sapiens, UniProt P30989). Put plainly: NTSR1 competition binding, membranes of CHO cells stably expressing human NTSR1, [3H]neurotensin. The following applies: [3H]neurotensin 0.50 nM, mean ± SEM ([natRe]2: ± SD, n = 2). The protocol: as §1
In test [3] the test system is NTSR1-positive HT-29 cells. Put plainly: Competitive cellular uptake assay. Conditions: Homo sapiens, 37 °C, 1 h. Format: cell-based. The protocol:
For the determination of the IC50 values, 8–10 concentrations of FAUC468 were used. The HT-29 cells were seeded on the day of the experiment in a 96-well-plate (~500.000 cells per well in 200 µL cell medium) and were incubated in a humidified atmosphere at 37 °C containing 5% CO2. Subsequently, the 96-well-plate was centrifuged at 850 rpm for 2 min following aspiration of the cell medium. The cells were washed with cell medium (200 µL), the plate was centrifuged at 850 rpm for 2 min, and the supernatant was aspirated. The incubation solutions (0.009–900 nM FAUC468 in 90 µL cell medium per well) and the respective radiotracer (10 µL, 100 kBq per well) were given to the wells, and the plates were incubated at 37 °C for 1 h. After the incubation time, the plate was centrifuged at 850 rpm for 2 min. The supernatant was removed, followed by two washing steps with the cell medium (200 µL) and PBS (200 µL). Sodium hydroxide solution (200 µL, 2 M, 37 °C) was added, and after 7 min, solutions of the cell homogenates were transferred into tubes, which were measured for radioactivity in a γ-counter (Wallac Wizard, Perkin Elmer, Waltham, MA, USA). […]

In test [4] the test system is HT-29 cells. Conditions: cited from earlier work.
Test [5] deals with NTSR1. Set-up: method as in PMID 33268796. The following applies: cited from earlier work.
Test [6] concerns the target NTSR2. Set-up: method as in PMID 33268796. The following applies: cited from earlier work.

“And” between values parts separate entries of the source, which are not always exact repeats. Identical values can stand only once. Like-named read-outs stand apart in the source and are kept apart here.

Chain of human NTSR1 (P30989 whole entry): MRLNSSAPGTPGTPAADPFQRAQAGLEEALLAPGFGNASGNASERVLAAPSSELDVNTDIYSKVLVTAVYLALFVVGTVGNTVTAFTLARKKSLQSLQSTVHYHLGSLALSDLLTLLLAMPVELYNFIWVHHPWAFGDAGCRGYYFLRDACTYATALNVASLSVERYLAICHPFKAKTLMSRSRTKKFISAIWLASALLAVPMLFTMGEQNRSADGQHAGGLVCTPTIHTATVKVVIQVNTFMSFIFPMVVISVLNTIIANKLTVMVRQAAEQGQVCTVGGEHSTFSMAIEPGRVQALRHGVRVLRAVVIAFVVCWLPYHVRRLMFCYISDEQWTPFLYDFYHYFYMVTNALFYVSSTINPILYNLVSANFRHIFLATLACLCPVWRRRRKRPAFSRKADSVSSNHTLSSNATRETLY
T1 sequence (O95665 whole entry): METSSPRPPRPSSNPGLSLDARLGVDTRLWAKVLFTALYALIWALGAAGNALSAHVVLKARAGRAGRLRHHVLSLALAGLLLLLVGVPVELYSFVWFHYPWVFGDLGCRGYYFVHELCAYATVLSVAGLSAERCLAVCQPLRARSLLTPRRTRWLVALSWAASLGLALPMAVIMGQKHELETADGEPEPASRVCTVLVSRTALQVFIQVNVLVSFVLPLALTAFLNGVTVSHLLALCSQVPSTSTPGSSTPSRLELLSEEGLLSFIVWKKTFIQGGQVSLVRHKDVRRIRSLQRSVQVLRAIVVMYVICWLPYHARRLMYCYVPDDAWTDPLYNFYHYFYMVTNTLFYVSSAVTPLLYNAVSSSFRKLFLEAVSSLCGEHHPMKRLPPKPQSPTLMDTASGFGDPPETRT

Turning to `COc1cccc(OC)c1-c1cc(C(=O)NC2(C(=O)O)C3CC4CC(C3)CC2C4)nn1-c1ccc(-c2cn(CCCN(C)CCCNC(=O)c3ccc(NN)nc3)nn2)cc1C(C)C` (centres unmarked) [Compound 5, 2-(5-(2,6-Dimethoxyphenyl)-1-(4-(1-(3-((3-(6-hydrazineylnicotinamido)propyl)-(methyl)amino)propyl)-1H-1,2,3-triazol-4-yl)-2-isopropylphenyl)-1H-pyrazole-3-carboxamido)-adamantane-2-carboxylic Acid], in test [1], the Ki came to 270 ± 94 nM.

As to `COc1cccc(OC)c1-c1cc(C(=O)NC2(C(=O)O)C3CC4CC(C3)CC2C4)nn1-c1ccc(-c2cn(CCCN(C)CCCNC(=O)CCn3cc(CC(N)C(=O)O)nn3)nn2)cc1C(C)C` (centres unmarked) [Compound 6, 2-(1-(4-(1-(3-((3-(3-(4-(2-Amino-2-carboxyethyl)-1H-1,2,3-triazol-1-yl)-propanamido)propyl)(methyl)amino)propyl)-1H-1,2,3-triazol-4-yl)-2-isopropylphenyl)-5-(2,6-dimethoxyphenyl)-1H-pyrazole-3-carboxamido)adamantane-2-carboxylic Acid], the Ki in test [1] is 85 ± 13 nM; in test [2] it was 0.3 nM and 0.32 nM. For the compound `COc1cccc(OC)c1-c1cc(C(=O)NC2(C(=O)O)C3CC4CC(C3)CC2C4)nn1-c1ccc(-c2cn(CCCN(C)CCCNC(=O)CN3CCN(CC(=O)O)CCN(CC(=O)O)CCN(CC(=O)O)CC3)nn2)cc1C(C)C` (centres unmarked) [FAUC468], the Ki came out at 100 ± 3 nM in test [1] and 1.9 ± 0.7 nM in test [2]. The IC50 in test [3] (radiotracer [99mTc]1, read-out: IC50 of FAUC468 for the displacement of [99mTc]1) is 1.93 nM; in test [3] (radiotracer [99mTc]2, read-out: IC50 of FAUC468 for the displacement of [99mTc]2), 3.12 nM. Regarding `COc1cccc(OC)c1-c1cc(C(=O)NC2(C(=O)O)C3CC4CC(C3)CC2C4)nn1-c1ccnc2cc(Cl)ccc12` (centres unmarked) [SR 48692], in test [4] ([125I-Tyr3]NT(8-13) as radioligand), the IC50 is 30 nM.

As to `COc1cccc(OC)c1-c1cc(C(=O)NC2(C(=O)O)C3CC4CC(C3)CC2C4)nn1-c1ccc(C(=O)N(C)CCCN(C)C)cc1C(C)C` (centres unmarked) [SR 142948A], in test [4], the IC50 was 0.32 nM. As to “NTS: 13-amino-acid peptide originally isolated from bovine hypothalami”, the Ki was 0.15 to 0.5 nM in test [5] and 5 to 7 nM in test [6].
